Measurements from patent US9890152B2 (Genentech, Inc., priority 2012, dated 2018).

The compounds below were run against T1, EGFR del746-750 T790M (Homo sapiens, UniProt P00533, DEL746-750/T790M) (assay: EGFR del746-750 T790M biochemical assay (Caliper mobility shift)). Settings: 5 μM ATP, 30 min, room temperature; apparent Ki (Morrison) converted by Cheng-Prusoff, Km of ATP 2.1 μM; read-out: EGFR(T790M/d746-750) Ki.
T1 construct: purchased Carna Biosciences 08-528
T1 sequence (P00533 with tags, fused parts or gaps DEL746-750/T790M limits assumed): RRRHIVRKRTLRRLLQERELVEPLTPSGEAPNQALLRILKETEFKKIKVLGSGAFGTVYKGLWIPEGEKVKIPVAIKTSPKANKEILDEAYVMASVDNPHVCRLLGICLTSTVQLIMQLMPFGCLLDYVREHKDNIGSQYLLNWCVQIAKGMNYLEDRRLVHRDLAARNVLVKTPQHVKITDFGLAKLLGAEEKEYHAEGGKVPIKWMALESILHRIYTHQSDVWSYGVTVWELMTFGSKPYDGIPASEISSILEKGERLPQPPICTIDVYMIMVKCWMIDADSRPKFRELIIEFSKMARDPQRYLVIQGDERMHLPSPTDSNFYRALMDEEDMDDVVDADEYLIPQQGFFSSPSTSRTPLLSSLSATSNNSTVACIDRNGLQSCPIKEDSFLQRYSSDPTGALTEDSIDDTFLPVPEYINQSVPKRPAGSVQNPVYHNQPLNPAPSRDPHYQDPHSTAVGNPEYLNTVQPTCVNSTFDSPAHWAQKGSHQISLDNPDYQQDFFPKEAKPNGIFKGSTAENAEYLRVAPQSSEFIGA

Ki [nM]	SMILES
118	Cc1nc2cnc(Nc3ccnc(N4CC[C@@H](F)C4)n3)cc2n1C(C)C [Example 593, [2-((R)-3-Fluoropyrrolidin-1-yl)pyrimidin-4-yl]-(1-isopropyl-2-methyl-1H-imidazo[4,5-c]pyridin-6-yl)amine]
9.62	CCc1ncc(-c2nccc(Nc3cc4c(cn3)nc(C)n4C(C)C)n2)s1 [Example 595, [2-(2-Ethylthiazol-5-yl)pyrimidin-4-yl]-(1-isopropyl-2-methyl-1H-imidazo[4,5-c]pyridin-6-yl)amine]
27.5	Cc1nc2cnc(Nc3ccnc(-n4ccnc4)n3)cc2n1C(C)C [Example 599, (2-Imidazol-1-ylpyrimidin-4-yl)-(1-isopropyl-2-methyl-1H-imidazo[4,5-c]pyridin-6-yl)amine]
75.8	Cc1nc2cnc(Nc3ccnc(N4CC[C@H](O)C[C@@H]4C)n3)cc2n1C(C)C [Example 600]
50.5	Cc1nc2cnc(Nc3ccnc(N4CC[C@@H](O)C[C@H]4C)n3)cc2n1C(C)C [Example 601]
13.1	C[C@H](n1c([C@@H](C)O)nc2cnc(Nc3ccnc(OCC(C)(C)S(C)(=O)=O)n3)cc21)C(F)(F)F [Example 609, (R)-1-[6-[2-(2-Methanesulfonyl-2-methylpropoxy)pyrimidin-4-ylamino]-1-((S)-2,2,2-trifluoro-1-methylethyl)-1H-imidazo[4,5-c]pyridin-2-yl]ethanol]
13.2	Cc1nc2cnc(Nc3ccnc(NCC(F)(F)C(N)=O)n3)cc2n1C(C)C [Example 610, 2,2-Difluoro-3-[4-(1-isopropyl-2-methyl-1H-imidazo[4,5-c]pyridin-6-ylamino)pyrimidin-2-ylamino]propionamide]
0.773	CNc1nc(C)c(-c2nccc(Nc3cc4c(cn3)nc(C)n4C(C)C)n2)s1 [Example 611, (1-Isopropyl-2-methyl-1H-imidazo[4,5-c]pyridin-6-yl)-[2-(4-methyl-2-methylaminothiazol-5-yl)pyrimidin-4-yl]amine]
3.34	Cc1nc2cnc(Nc3ccnc(-c4cnc(N)s4)n3)cc2n1C(C)C [Example 614, [2-(2-Aminothiazol-5-yl)pyrimidin-4-yl]-(1-isopropyl-2-methyl-1H-imidazo[4,5-c]pyridin-6-yl)amine]
3.38	CC(C)n1c(CO)nc2cnc(Nc3ccnc(-c4cnc(N)s4)n3)cc21 [Example 615, {6-[2-(2-Aminothiazol-5-yl)pyrimidin-4-ylamino]-1-isopropyl-1H-imidazo[4,5-c]pyridin-2-yl}methanol]
67.8	CC(C)n1c(CO)nc2cnc(Nc3ccnc(C4=CCC(O)CC4)n3)cc21 (stereo not drawn) [Example 624, 4-(4-((2-(hydroxymethyl)-1-isopropyl-1H-imidazo[4,5-c]pyridin-6-yl)amino)pyrimidin-2-yl)cyclohex-3-enol]
38.6	Cc1nc2cnc(Nc3ccnc(-c4cn(CC5CC5)nc4Cl)n3)cc2n1C(C)C [Example 625, N-(2-(3-Chloro-1-(cyclopropylmethyl)-1H-pyrazol-4-yl)pyrimidin-4-yl)-1-isopropyl-2-methyl-1H-imidazo[4,5-c]pyridin-6-amine]
4.53	CC(n1cc(C(=O)NC2CCOCC2)c2cnc(Nc3ccnc(-c4cnn(S(=O)(=O)C5CC5)c4)n3)cc21)C(F)(F)F (stereo not drawn) [Example 635, 6-(2-(1-(Cyclopropylsulfonyl)-1H-pyrazol-4-yl)pyrimidin-4-ylamino)-N-(tetrahydro-2H-pyran-4-yl)-1-(1,1,1-trifluoropropan-2-yl)-1H-pyrrolo[3,2-c]pyridine-3-carboxamide]
14.4	CC(n1cc(C(=O)NC2CCOCC2)c2cnc(Nc3ccnc(N4CCC(C)(O)CC4)n3)cc21)C(F)(F)F (stereo not drawn) [Example 636, 6-(2-(4-Hydroxy-4-methylpiperidin-1-yl)pyrimidin-4-ylamino)-N-(tetrahydro-2H-pyran-4-yl)-1-(1,1,1-trifluoropropan-2-yl)-1H-pyrrolo[3,2-c]pyridine-3-carboxamide]
219	Cc1nc2cnc(Nc3ccnc(N4CCC5(CC4)OCCCO5)n3)cc2n1C(C)C [Example 648]
